# Key:
# Type in all cases: functional
# Cortical neurone [1] = experiment: Neuroprotective activity against Sprague-Dawley rat cortical neurons assessed as glutamate-induced LDH release at 0.1 uM for 1 hr before glutamate challenge measured after 24 hrs by spectrophotometry
# Cortical neurone [2] = experiment: Neuroprotective activity against Sprague-Dawley rat cortical neurons assessed as glutamate-induced LDH release at 1 uM for 1 hr before glutamate challenge measured after 24 hrs by spectrophotometry
# Cortical neurone [3] = experiment: Neuroprotective activity against Sprague-Dawley rat cortical neurons assessed as glutamate-induced LDH release at 10 uM for 1 hr before glutamate challenge measured after 24 hrs by spectrophotometry
Compound,Activity (Cortical neurone [1]) [%],Activity (Cortical neurone [2]) [%],Activity (Cortical neurone [3]) [%]
C[C@]1(OC(=O)/C=C/c2ccccc2)C[C@@H](O)[C@]2(O)C=CO[C@@H](O[C@@H]3O[C@H](CO)[C@@H](O)[C@H](O)[C@H]3O)[C@@H]21 [HARPAGOSIDE],38.2,38.5,44.7
NC(CCCP(=O)(O)O)C(=O)O (racemic),5.7,27.8,43.6
COc1ccc(/C=C\C(=O)O[C@@]2(C)C[C@@H](O)[C@]3(O)C=CO[C@@H](O[C@@H]4O[C@H](CO)[C@@H](O)[C@H](O)[C@H]4O)[C@@H]32)cc1,40.7,48.2,49.6
N#Cc1cc2c(cc1[N+](=O)[O-])=NC(=O)C(=O)N=2,28.1,47.3,61.6
COc1ccc(/C=C\C(=O)OC[C@H]2O[C@@H](O[C@@H]3OC=C[C@@]4(O)[C@H](O)C[C@](C)(O)[C@@H]34)[C@H](O)[C@@H](O)[C@@H]2O)cc1,33.3,47.6,46.6
COc1ccc(/C=C/C(=O)OC[C@H]2O[C@@H](O[C@@H]3OC=C[C@@]4(O)[C@H](O)C[C@](C)(O)[C@@H]34)[C@H](O)[C@@H](O)[C@@H]2O)cc1,39.1,60.9,60.3
C[C@]12N[C@H](Cc3ccccc31)c1ccccc12.O=C(O)/C=C\C(=O)O [DIZOCILPINE MALEATE],31.8,61.5,83.6
C[C@]1(O)C[C@@H](O)[C@]2(O)C=CO[C@@H](O[C@H]3O[C@H](CO)[C@@H](O)[C@H](O)[C@H]3O)[C@@H]21 [HARPAGIDE],41.4,42.2,46.2
C[C@]1(OC(=O)/C=C\c2ccccc2)C[C@@H](O)[C@]2(O)C=CO[C@@H](O[C@@H]3O[C@H](CO)[C@@H](O)[C@H](O)[C@H]3O)[C@@H]21 [Z-harpagoside],26.4,38.8,42.5
COc1ccc(/C=C/C(=O)O[C@@]2(C)C[C@@H](O)[C@]3(O)C=CO[C@@H](O[C@@H]4O[C@H](CO)[C@@H](O)[C@H](O)[C@H]4O)[C@@H]32)cc1,54.9,61.8,58.9
